Measured values: the NIST ThermoML archive (doi:10.1016/j.fluid.2009.08.011)

Test: cn = amount concentration of the nth substance listed, in mol/dm3
Settings: 101 kPa, Liquid, Alternating current cell with electrodes

CCCCCCn1cc[n+](C)c1.[Br-] [3-hexyl-1-methyl-1H-imidazolium bromide] + O
Settings | molar conductivity [S·m2/mol]
298.15 K, c1 = 0.0004233 | 0.0104
298.15 K, c1 = 0.0008352 | 0.0103
298.15 K, c1 = 0.001327 | 0.0102
298.15 K, c1 = 0.001785 | 0.0101
298.15 K, c1 = 0.002231 | 0.0101
298.15 K, c1 = 0.003203 | 0.00996
298.15 K, c1 = 0.004124 | 0.00983
298.15 K, c1 = 0.005143 | 0.00974
298.15 K, c1 = 0.006841 | 0.00955
298.15 K, c1 = 0.008495 | 0.00941
298.15 K, c1 = 0.01022 | 0.00923
298.15 K, c1 = 0.01211 | 0.00905
298.15 K, c1 = 0.01464 | 0.0088
308.15 K, c1 = 0.0004492 | 0.0108
308.15 K, c1 = 0.001027 | 0.0106
308.15 K, c1 = 0.001581 | 0.0105
308.15 K, c1 = 0.002065 | 0.0104
308.15 K, c1 = 0.002724 | 0.0104
308.15 K, c1 = 0.003914 | 0.0102
308.15 K, c1 = 0.005116 | 0.00999
308.15 K, c1 = 0.006411 | 0.00987
308.15 K, c1 = 0.008535 | 0.00965
308.15 K, c1 = 0.01052 | 0.00946
308.15 K, c1 = 0.0126 | 0.00927
308.15 K, c1 = 0.01458 | 0.00912
318.15 K, c1 = 0.0004492 | 0.011
318.15 K, c1 = 0.001027 | 0.0109
318.15 K, c1 = 0.001581 | 0.0108
318.15 K, c1 = 0.002065 | 0.0107
318.15 K, c1 = 0.002724 | 0.0106
318.15 K, c1 = 0.003914 | 0.0104
318.15 K, c1 = 0.005116 | 0.0103
318.15 K, c1 = 0.006411 | 0.0102
318.15 K, c1 = 0.008535 | 0.00993
318.15 K, c1 = 0.01052 | 0.00971
318.15 K, c1 = 0.0126 | 0.00953
318.15 K, c1 = 0.01458 | 0.00935
328.15 K, c1 = 0.0005148 | 0.0114
328.15 K, c1 = 0.001041 | 0.0113
328.15 K, c1 = 0.001608 | 0.0111
328.15 K, c1 = 0.002215 | 0.011
328.15 K, c1 = 0.002695 | 0.0109
328.15 K, c1 = 0.003725 | 0.0107
328.15 K, c1 = 0.004772 | 0.0105
328.15 K, c1 = 0.005836 | 0.0103
328.15 K, c1 = 0.007462 | 0.0102
328.15 K, c1 = 0.00911 | 0.00996
328.15 K, c1 = 0.0107 | 0.00985
328.15 K, c1 = 0.01243 | 0.00963
328.15 K, c1 = 0.0147 | 0.00945

CCCCn1cc[n+](C)c1.[Cl-] [1-butyl-3-methylimidazolium chloride] + O
Settings | molar conductivity [S·m2/mol]
298.15 K, c1 = 0.0004271 | 0.0109
298.15 K, c1 = 0.0009378 | 0.0108
298.15 K, c1 = 0.001755 | 0.0107
298.15 K, c1 = 0.002553 | 0.0106
298.15 K, c1 = 0.002999 | 0.0106
298.15 K, c1 = 0.003835 | 0.0105
298.15 K, c1 = 0.004438 | 0.0104
298.15 K, c1 = 0.004986 | 0.0104
298.15 K, c1 = 0.005608 | 0.0103
298.15 K, c1 = 0.006388 | 0.0103
298.15 K, c1 = 0.007112 | 0.0102
298.15 K, c1 = 0.008217 | 0.0101
298.15 K, c1 = 0.008932 | 0.0101
298.15 K, c1 = 0.009777 | 0.00999
298.15 K, c1 = 0.01041 | 0.00996
298.15 K, c1 = 0.01119 | 0.00983
298.15 K, c1 = 0.01216 | 0.00978
298.15 K, c1 = 0.01304 | 0.00968
298.15 K, c1 = 0.01389 | 0.00962
308.15 K, c1 = 0.0006735 | 0.0111
308.15 K, c1 = 0.001508 | 0.011
308.15 K, c1 = 0.002241 | 0.011
308.15 K, c1 = 0.002432 | 0.0109
308.15 K, c1 = 0.003588 | 0.0108
308.15 K, c1 = 0.004875 | 0.0106
308.15 K, c1 = 0.006007 | 0.0104
308.15 K, c1 = 0.008219 | 0.0103
308.15 K, c1 = 0.01013 | 0.0103
308.15 K, c1 = 0.01259 | 0.0102
308.15 K, c1 = 0.01457 | 0.0101
308.15 K, c1 = 0.01708 | 0.01
308.15 K, c1 = 0.01958 | 0.01
308.15 K, c1 = 0.02199 | 0.00998
318.15 K, c1 = 0.000681 | 0.0119
318.15 K, c1 = 0.001635 | 0.0117
318.15 K, c1 = 0.002388 | 0.0113
318.15 K, c1 = 0.003429 | 0.0111
318.15 K, c1 = 0.004391 | 0.0109
318.15 K, c1 = 0.006618 | 0.0107
318.15 K, c1 = 0.008725 | 0.0105
318.15 K, c1 = 0.01078 | 0.0103
318.15 K, c1 = 0.01367 | 0.0101
318.15 K, c1 = 0.01671 | 0.00997
318.15 K, c1 = 0.02016 | 0.00981
318.15 K, c1 = 0.02295 | 0.0097
318.15 K, c1 = 0.02493 | 0.00962
328.15 K, c1 = 0.0006908 | 0.0125
328.15 K, c1 = 0.0007995 | 0.0124
328.15 K, c1 = 0.001327 | 0.0123
328.15 K, c1 = 0.002041 | 0.0121
328.15 K, c1 = 0.002693 | 0.012
328.15 K, c1 = 0.004479 | 0.0115
328.15 K, c1 = 0.006054 | 0.0113
328.15 K, c1 = 0.007413 | 0.0111
328.15 K, c1 = 0.008786 | 0.0109
328.15 K, c1 = 0.01028 | 0.0108
328.15 K, c1 = 0.01229 | 0.0106
328.15 K, c1 = 0.01504 | 0.0104
328.15 K, c1 = 0.01749 | 0.0102
